What was measured:
[1] = system: human fibrosarcoma cell strain HT-P11; assay: Action of MSE for promoting procollagenase production (FITC-collagen collagenase activity of culture supernatant); assay type: cell-based
Protocol: A test was carried out using anchorage independent cell strain which is derived from a human fibrosarcoma cell strain HT 1080 (ATCC CCL121) and growable in a serum-free, protein-free medium (referred to as "human fibrosarcoma cell strain HT-P11".). Namely, the above-described human fibrosarcoma cell strain HT 1080 (ATCC CCL1211) was cultured in the presence of serum in a flask having a base area of 25 cm^2 and the medium was replaced by the HF-AV medium. Replacing a fifth to half part of the cultured suspension with a fresh HF-AV medium every 3-4 days, the culture was continued in a serum-free, protein-free medium. The thus grown cells were used. The cells were pre-cultured as below to prepare a cell suspension which was then tested.
The human fibrosarcoma cell strain HT-P11 was suspended with a density of 1×10^5 cells/ml in the HF-AV medium. Flasks (each having a base area of 75 cm^2) were charged, respectively, with 20 ml of the resulting suspension, and stationarily cultured at 37° C. for 3 days in a 95% air/5% carbon dioxide gas atmosphere. […]
Using a type-I collagen labeled with fluorescein isothiocyanate (hereinafter abbreviated as "FITC") (a 1 mg/ml conc. FITC/collagen acetic acid solution, manufactured by Cosmo Bio Co.) as a substrate solution, the activity (unit/ml) of the above collagenase solution was determined in accordance with the following procedure.

[2] = system: Rats of hepatic fibrosis induced by CCl4; assay: Effect of MSE in medical treatment for hepatic fibrosis (Hyp in liver and blood, blood plasma biochemistry); assay type: in vivo, male rats of Wistar origin; details: mean ± standard error (n = 5)
Protocol: (§1) A 2 ml/kg dose of an equivalent mixture of carbon tetra-chloride (CCl4) and olive oil was administered hypodermically to the back of male rats of Wistar origin (5 weeks old; a weight of 122-134 g; and 5 rats/group) twice a week (on Monday and Thursday) for 10 weeks to produce rats of hepatic fibrosis. A 3 ml/kg dose of a 66.6 mg/ml conc. MSE aqueous solution was administered perorally once a day for continual 7 weeks (except Sundays) from the 4th week after the commencement of the CCl4 administration.
Then, the whole blood was gathered from the abdominal aorta and collected in a test tube treated with heparin. This was centrifuged to obtain blood plasma. The blood plasma was stored at -80° C. until the under-mentioned biochemical examinations.
(§2) Further, after gathering the whole-blood, the liver was extracted, weighed and divided into halves under an ice-chilled condition. Then, one of the halves was frozen at -80° C. for quantification of hydroxyproline (hereinafter abbreviated as "Hyp") in the liver and the other half was fixed with a 10% formaline solution for a histological examination.
(§3) On the other hand, there were provided, as an untreated group, a group of the rats of hepatic fibrosis administered with 3 ml/kg of refined water in lieu of the MSE aqueous solution according to the same schedule as the above and, as a group of normal rats, a group bred for 10 weeks without administering CCl4 and the MSE aqueous solution. Blood-gathering and liver-extraction were conducted on these groups in the same manner as the above.
(§4) Then, using the above each liver and blood plasma, the Hyp in the liver and blood were quantified. Additionally, the Hyp is an index of the quantity of the collagen [Methods of Biochemical Analysis, Vol. 15, p. 25 (1967)]. Further, biochemical examinations of the blood plasma [refer to the under-described items (b)-(h)] and histological examinations of the liver [refer to the under-described item (i)], as indices of liver injury, were conducted.
(a) Quantities of the Hyp in liver and blood.
(a-1) Quantity of the Hyp in a liver: about 100 mg of a liver were weighed precisely and added with 250 μl of physiological salt solution. Then, the liver was disintegrated by agitating vigorously (at 28,000 rpm for 30 seconds) with a homogenizer (PHYSCOTRON™, manufactured by Niti-On Medical and Physical Instruments Mfg. Co.).
The obtained suspension was centrifuged (at 5,000 rpm for 10 min.) and separated into a supernatant sample and a precipitation sample. By adding a 6N hydrochloric acid, each sample was increased to 2 ml and hydrolyzed at 110° C. for 24 hours. The hydrolyzate solution was centrifugally condensed to remove hydrochloric acid therefrom and the condensate was dissolved in a 0.01N hydrochloric acid.
The obtained solution was quantified according to a determination method of amino acids by a high-performance liquid chromatography with a post-column derivatization [Proceedings of the National Academy of Sciences of the U.S.A., Vol. 72, No. 2, p. 619 (1975)] to find quantities of the Hyp in the supernatant sample and precipitation sample, respectively. Then, a quantity of the Hyp per unit weight of the liver (μmol/g of liver) was calculated from the total quantity of the Hyps in the supernatant sample and precipitation sample and the weight of the liver.
(a-2) Quantity of the Hyp in blood: 100 μl of blood plasma was admixed with 100 μl of a 5 w/v % sulfo-salicylic acid aqueous solution under an ice-chilled condition and centrifugally separated (10,000 rpm; for 3 min.) to obtain a supernatant liquor. The Hyp in the supernatant liquor was quantified according to the above-mentioned determination method of amino acids (μmol/1).
(b) Quantity of glutamic-pyruvic transaminase (hereinafter abbreviated as "GPT"):
(b-3) Measurement of test sample.
(c) Quantity of glutamic-oxaloacetic transaminase (hereinafter abbreviated as "GOT"): […]

[3] = system: Rats of hepatic fibrosis induced by CCl4; assay: Histological examination of liver; assay type: in vivo, male rats of Wistar origin; details: as compared with the untreated group; hematoxylin-eosin
Protocol: as §1, §2, §3, §4
(i) Histological examination of liver: a liver was sliced according to a usual method and, after staining with hematoxylin-eosin, it was microscopically observed.

[4] = system: male mice of ICR strain; assay: Acute toxicity; assay type: in vivo; details: single peroral dose 5 g/kg of body weight, 5 male mice, observed 7 days
Protocol: An acute toxicity was examined as follows:
To 5 male mice of ICR strain (5 weeks old; a weight of 24~28 g), a 25 g/ml conc. MSE aqueous solution that had been prepared by dissolving MSE in refined water was perorally administered once in a dose of […] of the body weight (5 g/kg of the body weight, as MSE).

[5] = system: male rabbits of Japanese native strain; assay: Skin irritative test (Draize method); assay type: in vivo
Protocol: Using male rabbits of Japanese native strain (a weight of about 3 kg), a skin irritative test was conducted in accordance with the Draize method [Appraisal of the Safety of Chemicals in Foods, Drugs and Cosmetics, p.46 (1959) edited and published by the Editorial Committee, Association of Food & Drug Official of U.S.A.].
An abraded region (injured skin) was produced on the hair-trimmed back of the rabbits. An adhesive plaster for a patch test (RIBBON-AID™ of 1.2 cm×1.6 cm, manufactured by Liba-Tape & Co., Ltd.) was impregnated with 0.1 ml of a 1 wt. % MSE aqueous solution that had been prepared by dissolving MSE in refined water and attached onto the injured skin and a normal skin, respectively. After 24 hours, the plaster was detached to observe erythematic and edematous conditions of the skins. After 48 hours from detaching of the plaster, the same observation was made.
Based on the above scores and the following equation, primary irritant scores were calculated.
Primary irritant score=(A24 +A48)/2+(B24
Then, irritation degrees of the test compounds were appraised based upon the primary irritative scores and the criteria shown in Table 6.

## CN[C@@H](CO)C(=O)O [MSE, N-methyl-L-serine]
[1]; mean ± standard error (N = 3), control 3.7 ± 0.2, 600 μM MSE solution, 0.4 ml added to 2 ml culture, 13 days, P < 0.01
  Production of procollagenase: 7.9 ± 0.7 unit/ml of culture solution
[1]; versus no additives (control)
  Production promotion rate: 114%
[2]; Bessey-Lowry's method, untreated 1270 ± 90, p < 0.01
  f: Quantity of alkaline phosphatase: 956 ± 114 unit/l
[2]; Malloy-Evelyn's method, untreated 0.36 ± 0.02, p < 0.1
  e: Quantity of gross bilirubin: 0.26 ± 0.05 m9/dl
[2]; blood plasma, untreated 0.26 ± 0.06
  g: Thymol turbidimetric test value (TTT): 0.18 ± 0.13 U of Kunkel
[2]; blood plasma, untreated 0.78 ± 0.11, p < 0.01
  h: Zinc sulphate turbidimetric test value (ZTT): 0.26 ± 0.07 U of Kunkel
[2]; blood plasma, untreated 17.6 ± 0.7, p < 0.1
  d: Quantity of γ-glutamyl transpeptidase (γ-GTP): 14.4 ± 1.7 U/liter
[2]; blood plasma, untreated 30.6 ± 1.1, p < 0.1
  a-2: Quantity of the Hyp in blood: 39.1 ± 3.6 μmol/1
[2]; blood plasma, untreated 948 ± 92, p < 0.01
  b: Quantity of glutamic-pyruvic transaminase (GPT): 537 ± 182 Reitman-Frankel unit
[2]; blood plasma, untreated 2170 ± 184, p < 0.01
  c: Quantity of glutamic-oxaloacetic transaminase (GOT): 875 ± 324 Reitman-Frankel unit
[2]; peroral 3 ml/kg of 66.6 mg/ml once a day, 7 weeks, untreated 10.0 ± 1.5, p < 0.1
  a-1: Quantity of the Hyp in liver: 6.79 ± 0.82 μmol/g of liver
[3]
  cholangioepithelial cytogenesis: mitigated
  cholangiolar hyperplasia: mitigated
  diffuse hepatocyte vacuolization: mitigated
[4]
  deaths by administration: no deaths
[5]; 0.1 ml of 1 wt. % MSE aqueous solution, injured and normal skin, after 24 and 48 hours
  primary irritative score: zero
[5]; based on primary irritative score, 1 wt. % MSE aqueous solution
  appraisal of irritation: light irritation
